Measurements from patent US20110118337A1, “Method of Using Compositions Comprising MIR-192 and/or MIR-215 for the Treatment of Cancer” (Merck Sharp & Dohme Corp., priority 2008, published 2011).
d = 2'-deoxy (DNA); r = 2'-OH (RNA)

Tests used:
[1] = system: A549 cells; test: miRNA and p21 expression by quantitative RT-PCR after adriamycin treatment; assay type: cell-based
Description: (§1) TOV21G cells and A549 cells were obtained from the American Type Culture Collection (ATCC). TOV21G p53 and A549 p53 matched pair cell lines were created by stably infecting TOV21G and A549 cells with a lentivirus encoding either H1-term or p53 shRNA. Cells were cultured in Dulbecco's Modified Eagles Medium, supplemented with 10% fetal bovine serum, streptomycin, penicillin and L-glutamine.
(§2) MicroRNA expression was measured in the p53 matched cell lines (p53+/+ or p53−/− sh) either untreated or following treatment with various doses of the DNA damaging agent adriamycin (0, 10, 50 and 200 nM adriamycin). Forty-eight hours post treatment, RNA was harvested and the expression levels of miR-34a, miR-192, miR-215 and p21 were determined by quantitative RT-PCR with Taqman analysis carried out as described in Raymond C. K. et al., RNA 11: 1737-1744 (2005).

[2] = system: TOV21G cells; test: as above; assay type: cell-based
Description: as §1, §2

[3] = system: HCT116DICER^ex5 cells; test: Cell cycle FACS screen of pools of three siRNAs per gene (G1 after nocodazole, G2/M after aphidicolin); assay type: cell-based, human; settings: pools of 3 siRNAs/gene at 100 nM final, FACS 66 hours post-transfection, average of two experiments
Source text: To identify targets whose modulation influences the cell cycle arrest phenotype observed with miR-192 expression, the 62 candidate genes identified as described in Example 2 and shown in TABLE 3 were silenced individually by transfecting a pool of 3 gene-specific siRNA duplexes per gene (each directed to a different region of the gene) into HCT116DICER^ex5 cells. The siRNA duplex sequences (3 duplexes per gene) used to target each of the 62 genes are shown below in TABLE 5. The siRNA duplex oligonucleotides were obtained from Sigma-Genesys, as described in Linsley, P. S. et al., Mol Cell Biol 27:2240-2252 (2007).
HCT116DICER^ex5 cells were transiently transfected with pools of three different siRNA duplexes per gene at a 100 nM final concentration using Lipofectamine RNAiMax (Invitrogen), according to the manufacturer's instructions. At 48 hours post transfection, cells were left untreated, treated with nocodazole (100 ng/mL, Sigma-Aldrich), or treated with aphidicolin (2 μg/mL, Sigma-Aldrich) for an additional 18 hours before harvesting. The cells transfected with the siRNA pools were then screened by FACS analysis as described in Example 3 for the percentage of cells arrested in G1 or G2/M as compared to the negative siRNA luciferase control.
The siRNA pools tested in this screen were ranked according to the percentage of cells arrested in G1 or G2/M following transfection, as compared with a negative control siRNA targeting luciferase. To avoid being misled by possible RNAi off-target effects, the siRNA pools were deconvoluted to identify genes for which at least 2 different siRNA duplexes from the pool caused the cell cycle arrest phenotype (data not shown).
TABLE 6 summarizes the data obtained 66 hours post-transfection by FACS analysis showing the cell cycle distribution of the HCT116DICER^ex5 cells transfected with siRNA pools of 3 siRNAs/gene. Each pool was analyzed in two separate experiments, and the average percentage of the cells trapped in G1 (following nocodazole treatment), or G2/M (following aphidicolin treatment) are shown in TABLE 6.

[4] = system: HCT116DICER^ex5 cells; test: Cell cycle FACS analysis of siRNAs against top G1 and G2 arrest genes (nocodazole or aphidicolin); assay type: cell-based, human; settings: 100 nM siRNA
Description: Of the 62 genes shown above in TABLE 6, the 10 genes whose targeting by siRNA caused the largest percentage of cells to arrest in G1, listed below in TABLE 7, were transfected into HCT116DICER^ex5 cells in another experiment as follows.
HCT116DICER^ex5 cells were transfected with […] miR-192 or 100 nM siRNA against luciferase, or 100 nM siRNA (one siRNA duplex of the pool of three) against the putative miR-192 target of interest, as indicated in TABLES 7 and 8. At 48 hours post transfection, cells were treated with nocodazole or aphicicolin for an additional 18 hours prior to FACS analysis. The results for the nocodazole treated cells (% of cells in G1) are provided in TABLE 7, and graphically illustrated in FIG. 3A. The results for the aphidicolin treated cells (% of cells in G2) are provided in TABLE 8 and graphically illustrated in FIG. 3B.

[5] = system: HCT116DICER^ex5 cells; test: Transfection of siRNA pools (G1 or G2 gene set) at suboptimal levels, cell cycle FACS analysis (nocodazole or aphidicolin); assay type: cell-based, human; settings: 100 nM, 66 hours post transfection
Description: […] At 48 hours post-transfection into HCT116DICER^ex5 cells, the cells were treated with nocodazole for an additional 18 hours prior to FACS analysis.
[…] At 48 hours post-transfection into HCT116DICER^ex5 cells, the cells were treated with aphidicolin for an additional 18 hours prior to FACS analysis.

[6] = system: HCT116DICER^ex5 cells; test: Cell cycle distribution by propidium iodide FACS after miR-192 duplex transfection (untreated, nocodazole or aphidicolin); assay type: cell-based, human; settings: for % Cells with 2N (G1/S) / % Cells with 4N (G2/M): 10 nM duplex, 66 hours after transfection
Description: At 48 hours post transfection, cells were left untreated, treated with nocodazole (100 ng/mL, Sigma-Aldrich), or treated with aphidicolin (2 μg/mL, Sigma-Aldrich) for an additional 18 hours before harvesting. The cells were then trypsinized, collected, fixed and stained with a propidium iodide solution. BrdU-labeling was performed according to the manufacturer's instructions (BD-Pharmigen). For phospho-histone H3 analysis, cells were fixed and permeabilized with IPF buffer (100 mM PIPES pH 6.8, 10 mM EDTA, 1 mM MgCl2, 0.2% Triton X-100, 4% formaldehyde) and stained with propidium iodide and anti-phospho-histone H3 antibody conjugated to Alexa-488 (Cell Signaling Technology). The cells were analyzed using a FACSCalibur flow cytometer (Beacton Dickinson) and FlowJo software (Tree Star, Inc.).

[7] = system: 3′ UTRs of the 18 candidate genes in U-2-OS cells; test: 3′ UTR luciferase reporter analysis; assay type: cell-based; settings: 10 nM, 24 hours post-transfection
Source text: In order to test whether miR-192 is regulating these genes through seed sequence-specific recognition of binding sites within their 3' UTRs, a series of reporter constructs were generated containing the entire natural 3' UTRs of the 18 candidate genes (BCL2, CDC7, CUL5, DLG5, DTL, ERCC3, HOXA10, HRH1, LMNB2, MAD2L1, MCM10, MIS12, MPHOSPH1, PIM1, PRPF38A, […]1, SEPT10 and SMARCB1) inserted downstream of a luciferase open reading frame (SwitchGear Genomics) to create 3' UTR luciferase reporter plasmids. U-2-OS cells were transfected first with 10 nM miR-192 or 10 nM miR-192 mutant, and subsequently transfected 4 to 6 hours later with these 3' UTR reporter plasmids. A renilla luciferase expression plasmid from dual luciferase system (Promega) was used as an internal control. Luciferase activity was measured at 24 hours post-transfection, and quantified relative to renilla luciferase activity.

[8] = system: CDC7, LMNB2, MAD2L1 and CUL5; test: Western blot analysis; assay type: cell-based, human; settings: HCT116DICER^ex5 cells, 10 nM, data not shown
Description: HCT116DICER^ex5 cells were transfected with 10 nM siRNA against luciferase or 10 nM miR-192 or 10 nM miR-192 mutant, and lysates were prepared at 28 hours or 48 hours post-transfection. For immunoblotting, 30 μg of whole cell lysate extracted in a modified RIPA buffer (150 mM NaCl, 50 mM Tris pH 7.4, 1 mM EDTA, 1% NP-40, 0.1% SDS) was used per sample. CDC7, LMNB2, MAD2L1 and CUL5 were detected by Western blot using anti-CDC7 (sc-56275, Santa Cruz Biotechnology Inc.), anti-LMNB2 (MAB3536, Millipore), anti-MAD2L1 (ab55452, Abcam) and anti-CUL5 (Invitrogen) antibodies, and protein levels were compared to the level of β-actin expression as detected by an anti-β-actin antibody (Abcam).

In the case of `COc1cccc2c1C(=O)c1c(O)c3c(c(O)c1C2=O)C[C@@](O)(C(=O)CO)C[C@@H]3O[C@H]1C[C@H](N)[C@H](O)[C@H](C)O1` [adriamycin], the “miR-192, miR-215 and miR-34a expression” value ([1]; A549 cells, adriamycin 10, 50 or 200 nM, 48 hours post treatment) is reported as “up-regulation”, the “expression of miR-192 and miR-215” value ([1]; p53 deficient A549 cells, adriamycin 10, 50 or 200 nM) is reported as “not” and the p21 expression ([1]; p53 knockdown A549 cells) is reported as “lack of p21 induction”. For the same molecule, the “expression of miR-192 and miR-215” value ([1]; wild type (p53+/+) A549 cells, adriamycin 10, 50 or 200 nM) was “upregulated in a dose dependent manner”, the “miR-192, miR-215 and miR-34a expression” value ([2]; TOV21G cells, adriamycin 10, 50 or 200 nM, 48 hours post treatment) was “up-regulation” and the “expression of miR-192 and miR-215” value ([2]; p53 deficient TOV21G cells, adriamycin 10, 50 or 200 nM) was “not”. For the same molecule, the p21 expression ([2]; p53 knockdown TOV21G cells) was “lack of p21 induction” and the “expression of miR-192 and miR-215” value ([2]; wild type (p53+/+) TOV21G cells, adriamycin 10, 50 or 200 nM) was “upregulated in a dose dependent manner”.

With “Luc siRNA: Control siRNA targeting luciferase, SEQ ID NOS: 11/12 (chain 1 UCGAAGUAUUCCGCGUACGTT; chain 2 CGUACGCGGAAUACUUCGATT; sugars from the 5' end r19 d2, backbone not given here) [reference compound]” the “% G2 (Avg), Aphidicholin+” value ([3]; aphidicolin 2 μg/mL 18 h) was 18.9%, the “% G1 (Avg), Nocodazole+” value ([3]; nocodazole 100 ng/mL 18 h) was 13.8% and the “% Cells in G2” value ([4]; aphidicolin 18 hours from 48 hours post transfection) was 19.2%. The “% Cells in G1” value ([4]; nocodazole 18 hours from 48 hours post transfection) was 18.5%, the “% G1” value ([5]; after aphidicolin treatment) was 66.3% and the “% G2” value ([5]; after aphidicolin treatment) was 15.6%. For the same molecule, the “% G1” value ([5]; nocodazole) was 11.7% and the “% G2” value ([5]; nocodazole) was 83.8%.

With “miR-192 mutant: Seed region mutant miR-192 duplex, guide CUGCACUAUGAAUUGACAGCC (SEQ ID NO:8), passenger SEQ ID NO:9 (sense CUGUCAAUUCAUAGUGCUGAU; listed as RNA, chemistry not given here) [reference compound]” the “% Cells with 2N (G1/S)” value ([6]; aphidicolin 2 μg/mL 18 hours) was 66.5%, the “% Cells with 4N (G2/M)” value ([6]; aphidicolin 2 μg/mL 18 hours) was 16.1% and the “% Cells with 2N (G1/S)” value ([6]; nocodazole 100 ng/mL 18 hours) was 17%. The “% Cells with 4N (G2/M)” value ([6]; nocodazole 100 ng/mL 18 hours) was 66.3%, the “accumulation in the G2/M phase” value ([6]; treated with aphidicolin) was “did not” and the “% Cells with 2N (G1/S)” value ([6]; untreated) was 49.9%. For the same molecule, the “% Cells with 4N (G2/M)” value ([6]; untreated) was 30.8%, the “regulation of 3′ UTR luciferase reporters of the 18 genes” value [7] was “not” and the protein level [8] was “not”.
